Results reported in patent US6643591B1, “Use of computational and experimental data to model organic compound reactivity in cytochrome P450 mediated reactions and to optimize the design of pharmaceuticals” (University of Pittsburgh, priority 1998, dated 2003).
“And” between values parts separate entries of the source, which are not always exact repeats. Equal values may be shown once. Read-outs that look alike come from different tables or passages of the source. Marks after values point to notes of the source that are not given here.

How the values were obtained:
CYP2C8 = biological target: T1, CYP2C8 (Homo sapiens, UniProt P10632); details: pH 7.4
T1 sequence (P10632 1-490): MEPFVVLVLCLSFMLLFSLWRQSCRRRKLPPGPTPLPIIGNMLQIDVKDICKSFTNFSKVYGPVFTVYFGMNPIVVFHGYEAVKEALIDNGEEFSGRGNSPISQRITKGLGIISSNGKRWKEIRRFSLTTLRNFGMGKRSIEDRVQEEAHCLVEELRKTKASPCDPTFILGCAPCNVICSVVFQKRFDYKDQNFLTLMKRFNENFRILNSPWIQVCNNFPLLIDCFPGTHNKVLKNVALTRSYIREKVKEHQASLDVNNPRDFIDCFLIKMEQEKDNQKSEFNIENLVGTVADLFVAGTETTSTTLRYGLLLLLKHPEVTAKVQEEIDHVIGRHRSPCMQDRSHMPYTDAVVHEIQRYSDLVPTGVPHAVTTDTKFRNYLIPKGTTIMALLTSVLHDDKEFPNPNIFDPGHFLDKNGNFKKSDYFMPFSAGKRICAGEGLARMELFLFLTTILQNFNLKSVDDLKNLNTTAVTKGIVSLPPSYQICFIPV

CYP2C9 = CYP2C9 (Homo sapiens, UniProt P11712); details: human, pH 7.4
Sequence of CYP2C9 (P11712 whole entry): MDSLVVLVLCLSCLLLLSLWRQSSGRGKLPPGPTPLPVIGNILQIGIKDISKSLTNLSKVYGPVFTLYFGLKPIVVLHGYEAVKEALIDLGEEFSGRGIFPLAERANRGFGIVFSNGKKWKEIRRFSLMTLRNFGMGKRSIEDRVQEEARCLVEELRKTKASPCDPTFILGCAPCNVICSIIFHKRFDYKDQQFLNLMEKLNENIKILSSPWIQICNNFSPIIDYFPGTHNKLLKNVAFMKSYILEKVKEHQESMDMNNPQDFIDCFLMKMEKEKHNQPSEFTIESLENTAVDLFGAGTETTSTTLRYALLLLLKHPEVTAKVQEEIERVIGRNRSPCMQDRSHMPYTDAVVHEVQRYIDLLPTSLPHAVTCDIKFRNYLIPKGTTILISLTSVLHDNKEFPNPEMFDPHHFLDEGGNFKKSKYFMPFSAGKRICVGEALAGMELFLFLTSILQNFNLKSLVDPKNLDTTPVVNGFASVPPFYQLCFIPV

CYP = assay: Activation energy differences from experimental regioselectivity of substrates in rapid equilibrium; assay type: in vitro ADME; design: unit not given here; details: difference in activation energy calculated by the experimental regioselectivity
Text: Five substrates shown to undergo rapid equilibrium between positions of metabolism have been used to prepare data for regression and then correlation with Eq. 1. The differences in activation energy calculated by the experimental regioselectivity of the substrates, along with the differences in AM1 activation enthalpies, are given in Table 1. Regression of the experimental data gives a slope correction for AM1 activation energies of 0.75±0.20.

CYP1A2 = biological target: T2, CYP1A2 (Homo sapiens, UniProt P05177); details: pH 7.4
T2 sequence (P05177 1-516): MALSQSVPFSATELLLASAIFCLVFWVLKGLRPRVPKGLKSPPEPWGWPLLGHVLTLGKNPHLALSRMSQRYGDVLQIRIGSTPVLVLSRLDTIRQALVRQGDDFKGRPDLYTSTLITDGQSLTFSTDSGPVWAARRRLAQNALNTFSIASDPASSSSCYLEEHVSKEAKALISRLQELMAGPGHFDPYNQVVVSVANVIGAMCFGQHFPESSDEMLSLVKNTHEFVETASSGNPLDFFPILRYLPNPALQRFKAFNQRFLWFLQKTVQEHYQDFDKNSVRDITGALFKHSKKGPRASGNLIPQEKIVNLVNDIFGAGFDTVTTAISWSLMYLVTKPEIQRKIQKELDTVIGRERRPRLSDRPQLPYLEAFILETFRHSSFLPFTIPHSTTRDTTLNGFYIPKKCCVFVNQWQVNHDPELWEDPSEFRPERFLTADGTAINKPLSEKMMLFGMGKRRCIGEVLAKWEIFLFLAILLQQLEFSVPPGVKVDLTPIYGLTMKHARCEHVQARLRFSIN

CYP4B1 = CYP4B1 (Oryctolagus cuniculus, UniProt P15128)
Sequence of CYP4B1 (P15128 whole entry): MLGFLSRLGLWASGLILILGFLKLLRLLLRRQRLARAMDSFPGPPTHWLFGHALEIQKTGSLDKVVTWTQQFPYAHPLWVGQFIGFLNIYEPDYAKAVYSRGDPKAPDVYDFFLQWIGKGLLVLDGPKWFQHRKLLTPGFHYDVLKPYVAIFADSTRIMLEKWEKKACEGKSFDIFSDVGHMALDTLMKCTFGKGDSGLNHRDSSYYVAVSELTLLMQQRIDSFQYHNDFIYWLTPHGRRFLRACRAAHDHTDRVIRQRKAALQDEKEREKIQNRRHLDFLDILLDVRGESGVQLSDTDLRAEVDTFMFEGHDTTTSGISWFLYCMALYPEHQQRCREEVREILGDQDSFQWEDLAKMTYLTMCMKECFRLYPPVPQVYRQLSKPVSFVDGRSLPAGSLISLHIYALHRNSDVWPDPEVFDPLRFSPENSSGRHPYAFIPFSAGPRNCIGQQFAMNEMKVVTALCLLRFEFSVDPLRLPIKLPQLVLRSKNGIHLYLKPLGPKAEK

CYP2B1 = biological target: T3, CYP2B1 (Rattus norvegicus, UniProt P00176)
T3 sequence (P00176 1-491): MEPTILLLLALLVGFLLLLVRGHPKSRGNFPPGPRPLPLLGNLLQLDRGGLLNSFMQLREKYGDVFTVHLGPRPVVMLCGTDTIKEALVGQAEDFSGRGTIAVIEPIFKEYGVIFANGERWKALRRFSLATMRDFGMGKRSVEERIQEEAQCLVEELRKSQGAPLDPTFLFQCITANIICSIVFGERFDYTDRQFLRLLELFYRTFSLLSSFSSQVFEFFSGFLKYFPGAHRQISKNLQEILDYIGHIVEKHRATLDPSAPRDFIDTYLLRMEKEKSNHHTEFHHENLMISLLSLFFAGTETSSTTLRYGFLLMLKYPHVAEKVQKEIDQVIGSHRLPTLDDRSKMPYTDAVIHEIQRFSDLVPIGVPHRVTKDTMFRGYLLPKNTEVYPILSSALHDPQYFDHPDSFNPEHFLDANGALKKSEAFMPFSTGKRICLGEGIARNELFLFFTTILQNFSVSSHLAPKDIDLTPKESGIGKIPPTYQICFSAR

CYP2E1 = CYP2E1 (Homo sapiens, UniProt P05181); details: pH 7.4
Sequence of CYP2E1 (P05181 whole entry, canonical isoform): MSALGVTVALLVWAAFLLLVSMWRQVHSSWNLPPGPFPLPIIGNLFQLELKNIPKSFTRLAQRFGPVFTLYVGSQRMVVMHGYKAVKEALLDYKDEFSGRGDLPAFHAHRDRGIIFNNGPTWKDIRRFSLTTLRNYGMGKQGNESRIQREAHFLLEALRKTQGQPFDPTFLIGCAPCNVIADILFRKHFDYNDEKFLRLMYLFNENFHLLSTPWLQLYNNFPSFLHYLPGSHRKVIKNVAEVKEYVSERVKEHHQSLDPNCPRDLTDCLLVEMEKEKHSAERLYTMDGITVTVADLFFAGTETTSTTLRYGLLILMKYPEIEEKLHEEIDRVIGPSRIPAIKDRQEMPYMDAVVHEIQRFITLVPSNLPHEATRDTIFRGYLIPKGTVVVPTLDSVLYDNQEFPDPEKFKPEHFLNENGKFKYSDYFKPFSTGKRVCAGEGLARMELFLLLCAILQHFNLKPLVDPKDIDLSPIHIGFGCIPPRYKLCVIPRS

multiple CYP isoforms = details: for P, calculated primary KIE, average / S, calculated secondary KIE, average: Avg over isoforms with unmasked KIE; for INTER KIE, average: Avg over isoforms with unmasked KIE (p-MA: 1A2, 2B1, 2B6, 2E1; o-MA: six isoforms; α-ClMpX: 1A2, 2B1, 2B6); for Intramolecular KIE, average: Avg over the CYP isoforms tested; for Intramolecular KIE, range of values: range over the CYP isoforms tested

COc1ccc(C)cc1 [p-Methylanisole, p-methylanisole]
nmol p-CR (CYP2C8): 0.20 nmol
nmol p-MBA (CYP2C8): 1.89 nmol
nmol total TP (CYP2C8): 2.08 nmol
INTER KIE (combined intermolecular competitive KIE) (CYP2C9): 2.6
ΔΔG (experimental) (CYP): 1.1
INTER KIE (combined intermolecular competitive KIE) (CYP1A2): 5.9
P, calculated primary KIE (CYP1A2): 5.0
S, calculated secondary KIE (CYP1A2): 1.08
INTER KIE (combined intermolecular competitive KIE) (CYP4B1): 1.4 and 1.42
Intramolecular KIE (kH/kD) (CYP4B1): 6.08
nmol p-CR (CYP4B1; pH 7.4): 48* nmol
nmol p-MBA (CYP4B1; pH 7.4): 63* nmol
nmol total TP (CYP4B1; pH 7.4): 111* nmol
INTER KIE (combined intermolecular competitive KIE) (CYP2B1): 5.8
Intramolecular KIE (kH/kD) (CYP2B1): 3.69
P, calculated primary KIE (CYP2B1): 4.3
S, calculated secondary KIE (CYP2B1): 1.16
nmol p-CR (CYP2B1; rat, pH 7.4): 2.0* nmol
nmol p-MBA (CYP2B1; rat, pH 7.4): 4.2* nmol
nmol total TP (CYP2B1; rat, pH 7.4): 6.2* nmol
INTER KIE (combined intermolecular competitive KIE) (CYP2E1): 6.6
Intermolecular Competitive ^D(V/K) (CYP2E1): 2.57 ± 0.02
Intermolecular Noncompetitive ^D(V/K) (CYP2E1): 2.60 ± 0.01
Intermolecular Noncompetitive ^DV (CYP2E1): 2.28 ± 0.10
P, calculated primary KIE (CYP2E1): 4.9
S, calculated secondary KIE (CYP2E1): 1.16
nmol p-CR (CYP2E1): 5.6* nmol
nmol p-MBA (CYP2E1): 23.8* nmol
nmol total TP (CYP2E1): 29.4 nmol
P, calculated primary KIE, average (multiple CYP isoforms): 5
S, calculated secondary KIE, average (multiple CYP isoforms): 1.2
INTER KIE, average (multiple CYP isoforms): 6
INTER KIE, average (multiple CYP isoforms; listed as p-MA): 6±1
P, calculated primary KIE, average (multiple CYP isoforms; listed as p-MA): 5±1
S, calculated secondary KIE, average (multiple CYP isoforms; listed as p-MA): 1.15±0.22
Intramolecular KIE, average (multiple CYP isoforms): 4.4
Intramolecular KIE, average (multiple CYP isoforms; listed as p-MA): 4.4±0.3
Intramolecular KIE, range of values (multiple CYP isoforms): 3.69-6.08
Combined intermolecular competitive KIE, range (multiple CYP isoforms; range over the isoforms): 5.9-6.8
P (primary KIE), range (multiple CYP isoforms; range over the isoforms): 4.3-5.0
S (secondary KIE), range (multiple CYP isoforms; range over the isoforms): 1.08-1.22

COc1ccccc1C [o-Methylanisole, o-methylanisole]
Metabolite profile, Phenol (CYP2C8): 33 Mol-%
Metabolite profile, o-CR (CYP2C8): 36 Mol-%
Metabolite profile, o-MBA (CYP2C8): 31 Mol-%
nmol 4M3MPh (CYP2C8): 0.2 nmol
nmol TP (CYP2C8): 0.6 nmol
nmol o-CR (CYP2C8): 0.2 nmol
nmol o-MBA (CYP2C8): 0.21 nmol
INTER KIE (combined intermolecular competitive KIE) (CYP2C9): 12
Intramolecular KIE (kH/kD) (CYP2C9): 6.3
Metabolite profile, Phenol (CYP2C9): 32 Mol-%
Metabolite profile, o-CR (CYP2C9): 22 Mol-%
Metabolite profile, o-MBA (CYP2C9): 46 Mol-%
P, calculated primary KIE (CYP2C9): 8
Ratio of ring hydroxylation para to the methoxy group to ODAlk (CYP2C9): 1.5
S, calculated secondary KIE (CYP2C9): 1.2
nmol TP (CYP2C9): 6.9* nmol
nmol o-CR (CYP2C9): 1.5* nmol
nmol o-MBA (CYP2C9): 3.1* nmol
ΔΔG (experimental) (CYP): 0.3
INTER KIE (combined intermolecular competitive KIE) (CYP1A2): 9.15
Intramolecular KIE (kH/kD) (CYP1A2): 5.7
Metabolite profile, Phenol (CYP1A2): 54 Mol-%
Metabolite profile, o-CR (CYP1A2): 12 Mol-%
Metabolite profile, o-MBA (CYP1A2): 34 Mol-%
P, calculated primary KIE (CYP1A2): 6.7
Ratio of ring hydroxylation para to the methoxy group to ODAlk (CYP1A2): 4.5
S, calculated secondary KIE (CYP1A2): 1.17
nmol 4M3MPh (CYP1A2): 9.7* nmol
nmol TP (CYP1A2): 18.0 nmol
nmol o-CR (CYP1A2): 2.2* nmol
nmol o-MBA (CYP1A2): 6.1* nmol
INTER KIE (combined intermolecular competitive KIE) (CYP4B1): 14.94
Intramolecular KIE (kH/kD) (CYP4B1): 6.90
P, calculated primary KIE (CYP4B1): 8.9
S, calculated secondary KIE (CYP4B1): 1.29
Metabolite profile, o-CR (CYP4B1; pH 7.4): 59 Mol-%
Metabolite profile, o-MBA (CYP4B1; pH 7.4): 39 Mol-%
Ratio ODAlk:Arom (CYP4B1; pH 7.4): 0.03
nmol 4M3MPh (CYP4B1; pH 7.4): 1.1* nmol
nmol TP (CYP4B1; pH 7.4): 48 nmol
nmol o-CR (CYP4B1; pH 7.4): 29* nmol
nmol o-MBA (CYP4B1; pH 7.4): 18.7* nmol
INTER KIE (combined intermolecular competitive KIE) (CYP2B1): 9.3
Intramolecular KIE (kH/kD) (CYP2B1): 5.78
P, calculated primary KIE (CYP2B1): 6.8
S, calculated secondary KIE (CYP2B1): 1.2
Metabolite profile, Phenol (CYP2B1; rat, pH 7.4): 63 Mol-%
Metabolite profile, o-CR (CYP2B1; rat, pH 7.4): 18 Mol-%
Metabolite profile, o-MBA (CYP2B1; rat, pH 7.4): 19 Mol-%
Ratio of ring hydroxylation para to the methoxy group to ODAlk (CYP2B1; rat, pH 7.4): 3.5
nmol 4M3MPh (CYP2B1; rat, pH 7.4): 9.1* nmol
nmol TP (CYP2B1; rat, pH 7.4): 13* nmol
nmol o-CR (CYP2B1; rat, pH 7.4): 2.3* nmol
nmol o-MBA (CYP2B1; rat, pH 7.4): 2.37* nmol
INTER KIE (combined intermolecular competitive KIE) (CYP2E1): 10
Intramolecular KIE (kH/kD) (CYP2E1): 5.95
Metabolite profile, Phenol (CYP2E1): 57 Mol-%
Metabolite profile, o-CR (CYP2E1): 16 Mol-%
Metabolite profile, o-MBA (CYP2E1): 27 Mol-%
P, calculated primary KIE (CYP2E1): 7.1
Ratio of ring hydroxylation para to the methoxy group to ODAlk (CYP2E1): 3.5
S, calculated secondary KIE (CYP2E1): 1.19
nmol 4M3MPh (CYP2E1): 13* nmol
nmol TP (CYP2E1): 23* nmol
nmol o-CR (CYP2E1): 3.8* nmol
nmol o-MBA (CYP2E1): 6.1* nmol
ΔΔG^‡ corresponding to regioselectivity BzH:ODAlk (multiple CYP isoforms): 0.1-0.65
Ring hydroxylation products, share of total products (multiple CYP isoforms; 20 min, […], pH 7.4): 30-60%
P, calculated primary KIE, average (multiple CYP isoforms): 8
S, calculated secondary KIE, average (multiple CYP isoforms): 1.2
INTER KIE, average (multiple CYP isoforms): 11
INTER KIE, average (multiple CYP isoforms; listed as o-MA): 11±3
P, calculated primary KIE, average (multiple CYP isoforms; listed as o-MA): 8±3
S, calculated secondary KIE, average (multiple CYP isoforms; listed as o-MA): 1.2±0.4
Intramolecular KIE, average (multiple CYP isoforms): 6.2
Intramolecular KIE, average (multiple CYP isoforms; listed as o-MA): 6.2±0.6
Intramolecular KIE, range of values (multiple CYP isoforms): 5.7-6.9
P (primary KIE), range (multiple CYP isoforms; range over the isoforms): 6.7-8.9
S (secondary KIE), range (multiple CYP isoforms; range over the isoforms): 1.15-1.29
Regioselectivity BzH:ODAlk, range (multiple CYP isoforms; range over the isoforms, listed as o-MA): 1.2-2.9
